In ChEMBL document CHEMBL5029196, “Novel Isoindolone Compounds as HPK1 Inhibitors for Treating Cancer” (ACS Med Chem Lett, 2022):

These compounds were tested against Mitogen-activated protein kinase kinase kinase kinase 1 (Homo sapiens, UniProt Q92918) (assay: Inhibition of human full length recombinant HPK1 using 5FAM-AKRRRLSSLRACOOH as substrate preincubated for 20 mins and measured for 60 mins by microfluidic mobility shift assay).
Sequence of Mitogen-activated protein kinase kinase kinase kinase 1 (Q92918 whole entry): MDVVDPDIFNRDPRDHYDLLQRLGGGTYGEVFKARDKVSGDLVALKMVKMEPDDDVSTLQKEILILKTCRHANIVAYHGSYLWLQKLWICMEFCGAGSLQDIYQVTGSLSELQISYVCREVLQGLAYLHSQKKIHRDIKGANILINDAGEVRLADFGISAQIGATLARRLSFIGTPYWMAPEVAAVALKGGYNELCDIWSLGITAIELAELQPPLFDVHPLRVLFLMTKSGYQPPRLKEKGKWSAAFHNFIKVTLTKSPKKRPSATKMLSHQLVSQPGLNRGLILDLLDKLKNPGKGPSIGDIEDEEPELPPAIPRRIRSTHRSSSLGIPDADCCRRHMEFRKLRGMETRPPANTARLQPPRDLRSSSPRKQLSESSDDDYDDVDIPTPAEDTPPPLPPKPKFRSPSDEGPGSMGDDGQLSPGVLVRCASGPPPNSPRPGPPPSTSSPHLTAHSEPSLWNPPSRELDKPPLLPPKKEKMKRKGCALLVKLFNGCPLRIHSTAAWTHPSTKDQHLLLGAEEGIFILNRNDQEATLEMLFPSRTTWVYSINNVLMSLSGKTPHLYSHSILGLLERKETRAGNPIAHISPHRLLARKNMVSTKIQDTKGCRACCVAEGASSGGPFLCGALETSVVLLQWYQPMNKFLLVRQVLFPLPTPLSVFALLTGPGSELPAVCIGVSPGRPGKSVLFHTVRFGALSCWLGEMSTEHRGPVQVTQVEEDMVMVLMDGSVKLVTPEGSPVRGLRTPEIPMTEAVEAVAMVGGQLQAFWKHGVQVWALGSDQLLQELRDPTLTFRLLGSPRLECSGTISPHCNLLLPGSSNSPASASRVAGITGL

SMILES | Ki [nM]
COc1cc2c(c(S(N)(=O)=O)c1)CN(c1cccc(-c3nncn3C(C)C)n1)C2=O | 0.4
COc1cc(CN)c2c(c1)C(=O)N(c1cccc(-c3nncn3[C@@H](C)CC(F)(F)F)n1)C2 | 0.3
CC[C@@H](CC(F)(F)F)n1cnnc1-c1cccc(N2Cc3c(CNC)cc(OC)cc3C2=O)n1 | 0.4

Other lines, results leading:

Ki [nM] | SMILES
0.3 | CC[C@H](C)n1cnnc1-c1cccc(N2Cc3c(CNC)cc(N4CCCC4)cc3C2=O)n1
0.2 | CNCc1cc(OC)cc2c1CN(c1cccc(-c3nncn3[C@@H](C)C3CC3)n1)C2=O
0.4 | CC[C@H](C)n1cnnc1-c1cccc(N2Cc3c(CNC)cc(N(C)C)cc3C2=O)n1
